The record followed here is US8173685B2, “Pleuromutilin derivatives and their use as antimicrobials” (Nabriva Therapeutics AG, priority 2007, dated 2012).

What all share (assay type): cell-based
Experiment [1] deals with Moraxella catarrhalis ATCC43618 (strain B407). The experiment can be described thus: MIC determination according to CLSI, Moraxella catarrhalis ATCC43618. From the text:
(§1) For example, the compounds of the present invention show antimicrobial, e.g. antibacterial, activity against gram positive bacteria, such as coagulase-positive and coagulase-negative Staphylococci, e.g. Staphylococcus aureus, Styphylococcus epidermis, Staphylococcus haemolyticus, Streptococci, e.g. Streptococcus pyogenes, Streptococcus pneumoniae, Streptococcus agalacticae, Enterococci, e.g. Enterococcus faecium and Moraxellaceae, e.g. Moraxella catarrhalis, Pasteurellaceae, e.g. Haemophilus influenzae, as well as against Mycoplasmactaceae, Chlamydiaceae, e.g. Chlamydia trachomatis, Chlamydia pneumoniae and obligatory anaerobes, e.g. Bacteroides fragilis, Clostridium difficile; in vitro in the Agar Dilution Test or Microdilution Test according to the Climical and Laboratory Standards Institute (CLSI, former National Committee for Clinical Laboratory Standards (NCCLS) 2006, Document M7-A7 Vol. 26, No. 2: “Methods for dilution Antimicrobial Susceptibility Tests for Bacteria that Grow Aerobically—Seventh Edition, Approved Standard”; and in the in vitro determination of the antibacterial activity against anaerobic bacteria according to National Committee for Clinical Laboratory Standards (NCCLS) VOL. 24, No. 2, M11-A5, Methods for Antimicrobal Susceptibility Testing of Anaerobic Bacteria; Approved Standard; Sixth Edition (2004) and in vivo in the septicaemic mouse model against Staphylococcus aureus.
(§2) The antibacterial activity expressed as minimal inhibitory concentration (MIC) was determined according to the approved standard reference recommendations of CLSI (former NCCLS).

Experiment [2] relates to Staphylococcus aureus (MSSA) ATCC10390 (strain B6). The experiment can be described thus: MIC determination according to CLSI, Staphylococcus aureus (MSSA) ATCC10390.
Source text: as §1, §2

In experiment [3] the test system is Staphylococcus aureus (MSSA) ATCC29213 (strain B7). The experiment can be described thus: MIC determination according to CLSI, Staphylococcus aureus (MSSA) ATCC29213.
Source text: as §1, §2

Experiment [4] relates to Escherichia coli ATCC25922 (strain B1). The experiment can be described thus: MIC determination according to CLSI, Escherichia coli ATCC25922.
Source text: as §1, §2

For experiment [5], the system named is Enterococcus faecalis ATCC51299 (strain B5). Put plainly: MIC determination according to CLSI, Enterococcus faecalis ATCC51299.
Source text: as §1, §2

Experiment [6] concerns Staphylococcus aureus, Enterococcus faecalis, Streptococcus pneumoniae, Moraxella catarrhalis and Escherichia coli. The experiment can be described thus: Antibacterial activity (MIC) against the panel of clinical relevant bacterial pathogens. Here is the method: as §2
Experiment [7] concerns Streptococcus pneumoniae ATCC49619 (strain B11). The experiment can be described thus: MIC determination according to CLSI, Streptococcus pneumoniae ATCC49619.
Source text: as §1, §2

Experiment [8] has as its system Enterococcus faecalis ATCC29212 (strain B4). Put plainly: MIC determination according to CLSI, Enterococcus faecalis ATCC29212.
Source text: as §1, §2

The mark [9] stands for this setting: ATCC43618, strain B407, read-out: MIC.
Where [10] appears, read: Staphylococcus aureus (MSSA), ATCC10390, strain B6, read-out: MIC.
Where [11] appears, read: Staphylococcus aureus (MSSA), ATCC29213, strain B7, read-out: MIC.
Setting [12] is: ATCC25922, strain B1, read-out: MIC.
Where [13] appears, read: ATCC51299, strain B5, read-out: MIC.
[14] abbreviates: ATCC49619, strain B11, read-out: MIC.
[15] abbreviates: ATCC29212, strain B4, read-out: MIC.

Usually MIC stands for the lowest concentration found to suppress growth.

Values after ≈ are worked out from the molar mass of the structure shown. Where two headings read alike, the source gives them in different places. A value given as a limit tells only on which side of the number the result lay.

`C=C[C@]1(C)C[C@@H](OC(=O)CSc2cccc(CNC(=O)[C@H]3CCCCN3)c2)[C@]2(C)C(C)CCC3(CCC(=O)C32)[C@@H](C)[C@@H]1O` (stereo partly drawn) [Example 1, 14-O-[(3-{[((R)-Piperidine-2-carbonyl)-amino]-methyl}-phenylsulfanyl)-acetyl]-mutilin]: the minimum inhibitory concentration (MIC) is 0.0125 µg/mL (≈ 0.0205 µM) in experiment [1] (setting [9]); not above 0.0125 µg/mL in experiment [2] (setting [10]); not above 0.0125 µg/mL in experiment [3] (setting [11]); 12.8 µg/mL (≈ 21 µM) in experiment [4] (setting [12]); 1.6 µg/mL (≈ 2.62 µM) in experiment [5] (setting [13]); not above 0.0025 µg/mL in experiment [7] (setting [14]). For the same compound, the MIC in experiment [8] (setting [15]) is 1.6 µg/mL (≈ 2.62 µM). In addition, the “factor by which MICs are lower than the MICs of examples 39-41” value in experiment [6] (against at least one of the strains shown in Table 1) was not below 2. Further, the “activity against the clinical relevant bacterial pathogens (in words)” value in experiment [6] (in vitro, S. aureus, E. faecalis, S. pneumoniae, M. catarrhalis, E. coli) was “very good activity”.

With `C=C[C@]1(C)C[C@@H](OC(=O)CSc2cccc(C)c2)[C@]2(C)C(C)CCC3(CCC(=O)C32)[C@@H](C)[C@@H]1O` (stereo partly drawn) [Example 39, 14-O-[(3-Methyl-phenylsulfanyl)-acetyl]-mutilin], the minimal inhibitory concentration (MIC) in experiment [1] (setting [9]) was 0.0125 µg/mL (≈ 0.0258 µM); in experiment [2] (setting [10]), 0.025 µg/mL (≈ 0.0516 µM); in experiment [3] (setting [11]), 0.05 µg/mL (≈ 0.103 µM); in experiment [4] (setting [12]), more than 6.4 µg/mL; in experiment [5] (setting [13]) it was more than 6.4 µg/mL; in experiment [7] (setting [14]) it was 0.16 µg/mL (≈ 0.33 µM). The minimal inhibitory concentration (MIC) in experiment [8] (setting [15]) was more than 6.4 µg/mL.

`C=C[C@]1(C)C[C@@H](OC(=O)COc2cccc(C)c2)[C@]2(C)[C@H](C)CC[C@]3(CCC(=O)[C@H]32)[C@@H](C)[C@@H]1O` [Example 40, 14-O-[(3-Methyl-phenoxy)-acetyl]-mutilin]: the minimal inhibitory concentration (MIC) in experiment [1] (ATCC43618) was 0.0125 µg/mL (≈ 0.0267 µM); in experiment [2] (Staphylococcus aureus) it was 0.05 µg/mL (≈ 0.107 µM); in experiment [3] (Staphylococcus aureus) it was 0.05 µg/mL (≈ 0.107 µM); in experiment [4] (ATCC25922) it was more than 6.4 µg/mL; in experiment [5] (ATCC51299), more than 6.4 µg/mL; in experiment [7] (ATCC49619), 0.64 µg/mL (≈ 1.37 µM). For the same compound, in experiment [8] (ATCC29212), the minimal inhibitory concentration (MIC) is more than 6.4 µg/mL.

With `CC[C@]1(C)C[C@@H](OC(=O)COc2cccc(C)c2)[C@]2(C)C(C)CCC3(CCC(=O)C32)[C@@H](C)[C@@H]1O` (stereo partly drawn) [Example 41, 14-O-[(3-Methyl-phenoxy)-acetyl]-19,20-dihydromutilin], the minimum inhibitory concentration (MIC) was 0.025 µg/mL (≈ 0.0531 µM) in experiment [1] (ATCC43618); 0.05 µg/mL (≈ 0.106 µM) in experiment [2] (Staphylococcus aureus); 0.1 µg/mL (≈ 0.212 µM) in experiment [3] (Staphylococcus aureus); more than 6.4 µg/mL in experiment [4] (ATCC25922); more than 6.4 µg/mL in experiment [5] (ATCC51299); more than 0.64 µg/mL in experiment [7] (ATCC49619). The compound further had an MIC in experiment [8] (ATCC29212) of more than 6.4 µg/mL.
